Experimental data: BindingDB's records for doi:10.1021/acs.jmedchem.8b01602 (2018)

Columns and labels:
[1] = Inhibition of mouse GAT2 expressed in HEK293 cells assessed as reduction in [3H]GABA uptake preincubated for 25 mins followed by [3H]GABA addition and measured after 10 mins by liquid scintillation counting method
[2] = Inhibition of mouse GAT3 expressed in HEK293 cells assessed as reduction in [3H]GABA uptake preincubated for 25 mins followed by [3H]GABA addition and measured after 4 mins by liquid scintillation counting method
[3] = Non-competitive inhibition of human GAT1 expressed in COS cells assessed as reduction in [2H6]GABA uptake by measuring [2H6]GABA Kd(app) at 10 uM preincubated for 25 mins followed by [2H6]GABA addition and measured after 4 mins by liquid scintillation counting method (Rvb = 28.3 +/- 1.5 nM)
[4] = Non-competitive inhibition of human GAT1 expressed in COS cells assessed as reduction in [2H6]GABA uptake by measuring [2H6]GABA Kd(app) at 1 uM preincubated for 25 mins followed by [2H6]GABA addition and measured after 4 mins by liquid scintillation counting method (Rvb = 28.3 +/- 1.5 nM)

IC50 [1] [µM] | IC50 [2] [µM] | Kd [3] [µM] | Kd [4] [µM] | Compound
53.7 | 58.9 |  |  | O=C(O)[C@H]1CNC[C@@H](CCN/N=C/c2ccc(-c3ccc(C(F)(F)F)cc3Cl)o2)C1
 | 33.1 | 0.112 | 0.056 | O=C(O)[C@H]1CNC[C@@H](CN/N=C/c2ccc(-c3cccc4ccccc34)o2)C1
53.7 | 25.7 |  |  | O=C(O)[C@H]1CNC[C@@H](CCN/N=C/c2ccc(-c3ccc(Cl)cc3Cl)o2)C1
 |  | 0.154 | 0.058 | O=C(O)[C@H]1CNC[C@@H](CN/N=C/c2ccc(-c3cc(C(F)(F)F)cc(C(F)(F)F)c3)o2)C1
